From US11439657B2, “Cancer stem cell growth inhibitor using miRNA” (CancerStem Tech Inc., priority 2017, dated 2022)
“Also recorded” adds a separate entry of the source.

Legend:
[1] = system: cancer stem cell population (ZsGreen+) established from pancreatic cancer cell line Panc-1; assay: Screening of miRNAs: cell count (cell viability) of the cancer stem cell population after transfection; format: cell-based, human; conditions: miRNA 10 pmol/well, lipofectamin 2000, cells counted 48 and 72 hours later, FIG. 4
Description: A cancer stem cell line was established by transducing a pancreatic cancer cell line (Panc-1) with an ODC (Ornithine Decarboxylase)-Degron system capable of visualizing low metabolism that is a property of cancer stem cells using a retrovirus vector (FIG. 1a). The base sequence coding the used ODC-Degron is as set forth in SEQ ID NO: 10. Usually, cancer stem cells are so 26s proteasome hypometabolic that they cannot degrade the introduced fluorescently labeled Ornithine Decarboxylase Degron, and thus the fluorescent protein sufficiently accumulates to provide visualization.
However, even when the ODC-degron system was introduced into the pancreatic cancer cell line Panc-1, only about 0.06% cells emitting fluorescence (green) were obtained in total. With such a small number of cancer stem cells, a series of experiments including drug screening cannot be performed. Accordingly, further enrichment of cancer stem cells provided a cancer stem cell population in which cells having observed fluorescent coloring (i.e., cancer stem cells) accounted for about 81.18% in total (FIG. 1b). The obtained cancer stem cell population was designated as ZsGreen+.
A cell suspension prepared by suspending the cancer stem cell population (ZsGreen+) in a medium (DMEM medium containing 10% by volume FBS) was seeded in each well of a 24-well plate at a density of 5000 to 10000 cells/well, followed by culture at 37° C. overnight. Thereafter, according to the lipofectamin 2000 protocol, each miRNA was transfected at 10 pmol/well, and 48 hours and 72 hours later, the cells were counted. In addition, tests were also conducted under the same condition on a case where the miRNA was not introduced (untreated group, control), a case where has-miR-34a (SEQ ID NO: 8) was used (positive control) in place of the selected miRNA, and a case where a control miRNA (SEQ ID NO: 9) was used (NC1, negative control) in place of the selected miRNA. In addition, for comparison, the non-cancer stem cell population (ZsGreen−) was used in place of the cancer stem cell population (ZsGreen+) to conduct tests under the same condition.
The ratio of the number of cells under each condition to the number of control cells into which the miRNA was not introduced (cell viability, %) was determined.

[2] = system: human pancreatic cancer cells (Bxpc3 line); assay: Antitumor effect on human pancreatic cancer cells (1), cell count after transfection; format: cell-based; conditions: 10 pmol/well, FIG. 8; for antitumor effect: 48 hours, positive control hsa-miR-34a; for proliferation inhibitory effect on pancreatic cancer cells: cells counted 48 hours later
Protocol: (§1) A cell suspension prepared by suspending human pancreatic cancer cells (Bxpc3 line) in D-MEM medium (containing 10% by volume FBS) was seeded in each well of a 24-well plate at 3×10^3 cells/well, followed by culture at 37° C. overnight. Thereafter, according to the lipofectamin 2000 protocol, each miRNA was transfected at 10 pmol/well, and 48 hours later, the cells were counted. In addition, tests were also conducted under the same condition on a case where the miRNA was not introduced (untreated group), a case where hsa-miR-34a (SEQ ID NO: 8) was used (positive control) in place of the miRNA, and a case where a control miRNA (SEQ ID NO: 9) was used (control miRNA, negative control) in place of the selected miRNA.

[3] = system: human esophageal cancer cells (TE11 line); assay: Antitumor effect on human esophageal cancer cells, cell count after transfection; format: cell-based; conditions: 10 pmol/well, FIG. 12; for antitumor effect: 72 hours, positive control hsa-miR-34a; for proliferation inhibitory effect on esophageal cancer cells: cells counted 72 hours after transfection
Protocol: as §1
As to hsa-miR-136-5p, hsa-miR-3065-3p, hsa-miR-4727-5p, hsa-miR-378g and hsa-miR-181a-5p, evaluation was performed of the antitumor effect on human esophageal cancer cells. The specific test method is the same as that for Test Example 4 except that human esophageal cancer cells (TE11 line) were used as cancer cells, and that the cells were counted 72 hours after transfection.

[4] = system: human pancreatic cancer cells (PSN-1 line); assay: Antitumor effect on human pancreatic cancer cells (2), cell count after transfection; format: cell-based; conditions: 10 pmol/well, 48 hours, FIG. 9
Protocol: as §1
As to hsa-miR-136-5p, hsa-miR-3065-3p and hsa-miR-181a-5p, evaluation was performed of the antitumor effect on human pancreatic cancer cells. The specific test method is the same as that for Test Example 4 except that a PSN-1 line was used as human pancreatic cancer cells.

Substance	proliferation inhibitory effect on cancer stem cells (cell viability) [1]	antitumor effect [2]	proliferation inhibitory effect on pancreatic cancer cells [2]	antitumor effect [3]	proliferation inhibitory effect on esophageal cancer cells [3]	antitumor effect [4]	proliferation inhibitory effect on pancreatic cancer cells [4]
hsa-miR-136-5p: human-derived miR-136-5p; base sequence set forth in SEQ ID NO: 1 as mature miRNA (ACUCCAUUUGUUUUGAUGAUGGA; listed as RNA, chemistry not given here; listed as Homo sapiens)	effectively suppress proliferation of cancer stem cells; also recorded: prominent proliferation inhibitory effect	much better antitumor effect than that of hsa-miR-34a; also recorded: particularly remarkable antitumor effect	strong proliferation inhibitory effect	much better antitumor effect than that of hsa-miR-34a	strong proliferation inhibitory effect	particularly remarkable antitumor effect	strong proliferation inhibitory effect
hsa-miR-3065-3p: human-derived miR-3065-3p; base sequence set forth in SEQ ID NO: 2 as mature miRNA (UCAGCACCAGGAUAUUGUUGGAG; listed as RNA, chemistry not given here; listed as Homo sapiens)	effectively suppress proliferation of cancer stem cells; also recorded: prominent proliferation inhibitory effect	much better antitumor effect than that of hsa-miR-34a	strong proliferation inhibitory effect	much better antitumor effect than that of hsa-miR-34a; also recorded: particularly remarkable antitumor effect	strong proliferation inhibitory effect	–	strong proliferation inhibitory effect
